Values quoted from earlier work in patent US12716021B2, “Aqueous modified acid compositions and methods of using the same” (FLUID ENERGY GROUP LTD., priority 2019, dated 2026).

Details: death in 2-3 minutes

Cl [hydrogen chloride gas, hydrogen chloride]
levels at which death can occur: 1300-2000 ppm
